For 1 compound, IC50 results are on record in ChEMBL document CHEMBL3639062, “Triazolopyridazines as PAR1 inhibitors, production thereof, and use as medicaments” (2015).

By IC50 is commonly meant the concentration that inhibits the measured activity by half.

This test addresses T1, Proteinase-activated receptor 1 (Homo sapiens, UniProt P25116).
T1 sequence (P25116 whole entry): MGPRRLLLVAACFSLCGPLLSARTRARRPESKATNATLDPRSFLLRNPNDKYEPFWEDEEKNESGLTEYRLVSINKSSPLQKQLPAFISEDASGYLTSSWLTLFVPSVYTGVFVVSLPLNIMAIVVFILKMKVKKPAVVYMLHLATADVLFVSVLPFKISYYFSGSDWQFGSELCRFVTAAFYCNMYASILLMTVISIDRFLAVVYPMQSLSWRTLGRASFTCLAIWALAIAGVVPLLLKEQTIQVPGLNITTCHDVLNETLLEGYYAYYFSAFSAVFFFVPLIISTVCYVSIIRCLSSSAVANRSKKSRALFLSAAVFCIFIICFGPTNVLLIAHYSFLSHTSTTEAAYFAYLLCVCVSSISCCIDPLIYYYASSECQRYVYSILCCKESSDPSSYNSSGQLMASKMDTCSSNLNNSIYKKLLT
As to the kind of experiment: Binding Assay: The synthesized substances were examined in a PAR1 binding test. This tested whether the substances can inhibit the binding of a radioactively labeled PAR1 agonist known from the literature at the PAR1 receptor (Ho-Sam Ahn, Mol Pharm, 51:350-356, 1997). The human PAR1 receptor was expressed transiently in High Five insect cells. From these cells, after 48 hours, a membrane preparation was produced by standard methods, aliquoted into 10 mM Tris-HCl; 0.3 mM EDTA; 1 mM EGTA; 250 mM sucrose pH 7.5, and stored at -80 C.The substances were preincubated with the membrane at room temperature for 15 minutes, then the radioligand (ALA-(para-F-Phe)-Arg-ChA-homoArg-(3,4-3H-Tyr)-NH2; approx. 40 Ci/mMol) was added. The end concentration of the radioligand in the test buffer (50 mM Tris-HCl; 10 mM MgCl2; 1 mM EGTA; 0.1% BSA; 2% DMSO) was 20 nM, that of the membrane 1 mg/ml. After an incubation time of 60 minutes, 25 uL of the mixture were transferred to a 96-well MultiScreenHTS FB.

Turning to `CCC(CC)Oc1nn2c(=N)n(CC(=O)c3cc(OC)cc(C(C)(C)C)c3)nc2cc1C`, the IC50 was 951 nM.
